ChEMBL document CHEMBL3774305, “Design, synthesis, and biological evaluation of arylpiperazine-benzylpiperidines with dual serotonin and norepinephrine reuptake inhibitory activities” (Bioorg Med Chem, 2016)

Assays:
Format in all cases: cell-based
[1] = target: T1, Sodium-dependent serotonin transporter (Homo sapiens, UniProt P31645); assay: Inhibition of [3H]-5-HT reuptake in human SERT transfected into HEK293 cells by liquid scintillation counting method
Target sequence in this assay (P31645 whole entry): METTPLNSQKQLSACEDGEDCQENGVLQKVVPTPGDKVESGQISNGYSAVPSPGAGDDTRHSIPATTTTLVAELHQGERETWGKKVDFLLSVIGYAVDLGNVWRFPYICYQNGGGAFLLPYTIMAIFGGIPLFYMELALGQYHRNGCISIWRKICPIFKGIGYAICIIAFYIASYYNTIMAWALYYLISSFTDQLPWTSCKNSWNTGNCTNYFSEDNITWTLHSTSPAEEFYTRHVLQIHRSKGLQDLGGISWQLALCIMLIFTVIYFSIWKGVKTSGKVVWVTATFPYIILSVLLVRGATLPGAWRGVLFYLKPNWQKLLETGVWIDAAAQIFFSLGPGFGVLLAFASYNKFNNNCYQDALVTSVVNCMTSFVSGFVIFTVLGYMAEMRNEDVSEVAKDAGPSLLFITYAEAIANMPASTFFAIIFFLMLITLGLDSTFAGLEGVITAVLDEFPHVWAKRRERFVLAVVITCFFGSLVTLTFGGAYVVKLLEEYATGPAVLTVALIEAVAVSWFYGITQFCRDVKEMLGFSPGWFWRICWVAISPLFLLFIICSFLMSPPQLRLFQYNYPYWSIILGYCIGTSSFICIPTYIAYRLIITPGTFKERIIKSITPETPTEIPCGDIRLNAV

[2] = target: T2, Sodium-dependent noradrenaline transporter (Homo sapiens, UniProt P23975); assay: Inhibition of [3H]-NE reuptake in human NET transfected into HEK293 cells by liquid scintillation counting method
T2 sequence (P23975 whole entry): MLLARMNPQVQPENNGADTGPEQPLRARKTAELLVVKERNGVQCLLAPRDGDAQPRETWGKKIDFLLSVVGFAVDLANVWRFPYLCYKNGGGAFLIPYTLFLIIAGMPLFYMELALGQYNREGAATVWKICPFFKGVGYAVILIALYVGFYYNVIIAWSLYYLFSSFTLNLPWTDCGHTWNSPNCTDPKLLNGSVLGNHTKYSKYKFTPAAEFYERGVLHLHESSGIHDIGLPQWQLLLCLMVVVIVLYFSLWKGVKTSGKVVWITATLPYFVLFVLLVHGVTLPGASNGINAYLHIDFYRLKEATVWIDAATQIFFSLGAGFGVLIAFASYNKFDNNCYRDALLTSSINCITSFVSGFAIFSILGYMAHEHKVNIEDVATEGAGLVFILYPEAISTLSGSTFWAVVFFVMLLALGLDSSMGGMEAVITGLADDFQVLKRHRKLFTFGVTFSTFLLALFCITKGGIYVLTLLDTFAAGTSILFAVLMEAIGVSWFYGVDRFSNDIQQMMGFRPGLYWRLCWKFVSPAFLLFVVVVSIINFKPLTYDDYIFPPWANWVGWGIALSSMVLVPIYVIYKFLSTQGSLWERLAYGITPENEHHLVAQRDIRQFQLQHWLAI

[3] = target: T1, Sodium-dependent serotonin transporter; assay: Inhibition of [3H]-5-HT reuptake in human SERT transfected into HEK293 cells at 1 uM by liquid scintillation counting method relative to venlafaxine HCl
Target sequence in this assay (P31645 whole entry, looked up): as the sequence (P31645 whole entry) above

[4] = target: T2, Sodium-dependent noradrenaline transporter; assay: Inhibition of [3H]-NE reuptake in human NET transfected into HEK293 cells at 10 uM by liquid scintillation counting method relative to venlafaxine HCl
[5] = target: T2, Sodium-dependent noradrenaline transporter; assay: Inhibition of [3H]-NE reuptake in human NET transfected into HEK293 cells at 1 uM by liquid scintillation counting method relative to […]

Compound	IC50 [1] [µM]	IC50 [2] [µM]	fold change (FC) [3]	fold change (FC) [4]	fold change (FC) [5]
COc1ccccc1N1CCN(CCCN2CCC(Cc3ccccc3)CC2)CC1	1.76	0.89	2.4	1.36	–
Clc1ccc(N2CCN(CCN3CCC(Cc4ccccc4)CC3)CC2)c(Cl)c1	4.32	2.5	0.85	1.29	–
Fc1ccc(N2CCN(CCCN3CCC(Cc4ccccc4)CC3)CC2)cc1	–	–	0.27	1.4	–
Cc1cccc(C)c1N1CCN(CCN2CCC(Cc3ccccc3)CC2)CC1	–	–	0.93	1.26	–
c1ccc(CC2CCN(CCN3CCN(c4ccccc4)CC3)CC2)cc1	–	–	0.89	1	–
Fc1ccc(N2CCN(CCN3CCC(Cc4ccccc4)CC3)CC2)cc1	–	–	0.41	1.16	–
c1ccc(CC2CCN(CCCN3CCN(c4ccccn4)CC3)CC2)cc1	–	–	0.32	1.23	–
c1ccc(CC2CCN(CCCN3CCN(c4ncccn4)CC3)CC2)cc1	–	–	0.08	1.01	–
FC(F)(F)c1ccc(N2CCN(CCN3CCC(Cc4ccccc4)CC3)CC2)cc1	–	–	0.69	1.26	–
Clc1ccc(N2CCN(CCN3CCC(Cc4ccccc4)CC3)CC2)cc1	–	–	0.56	1.18	–
c1ccc(CC2CCN(CCCN3CCN(c4ccccc4)CC3)CC2)cc1	1.36	0.6	0.58	1.51	–
Cc1cccc(C)c1N1CCN(CCCN2CCC(Cc3ccccc3)CC2)CC1	2	1.07	2.83	1.37	–
Brc1ccc(N2CCN(CCN3CCC(Cc4ccccc4)CC3)CC2)cc1	4.92	2.1	1.01	1.31	–
Clc1cccc(N2CCN(CCN3CCC(Cc4ccccc4)CC3)CC2)c1Cl	–	–	0.64	–	0.41
c1ccc(CC2CCN(CCN3CCN(c4ncccn4)CC3)CC2)cc1	–	–	0.33	–	-0.05
FC(F)(F)c1ccc(N2CCN(CCCN3CCC(Cc4ccccc4)CC3)CC2)cc1	2.61	1.17	0.76	1.34	–
Clc1cccc(N2CCN(CCCN3CCC(Cc4ccccc4)CC3)CC2)c1Cl	2.51	0.56	0.79	1.63	–
Clc1cccc(N2CCN(CCCN3CCC(Cc4ccccc4)CC3)CC2)c1	1.18	0.38	0.69	1.41	–
c1ccc(CC2CCN(CCN3CCN(c4ccccn4)CC3)CC2)cc1	–	–	0.31	–	0.08
Clc1cccc(N2CCN(CCN3CCC(Cc4ccccc4)CC3)CC2)c1	–	–	0.41	1.29	–
Clc1ccc(N2CCN(CCCN3CCC(Cc4ccccc4)CC3)CC2)cc1	2.03	0.53	0.44	1.46	–
COc1ccccc1N1CCN(CCN2CCC(Cc3ccccc3)CC2)CC1	–	–	0.27	–	0.2
Clc1ccc(N2CCN(CCCN3CCC(Cc4ccccc4)CC3)CC2)c(Cl)c1	1.46	0.76	1.06	1.45	–
Brc1ccc(N2CCN(CCCN3CCC(Cc4ccccc4)CC3)CC2)cc1	2.25	0.61	0.87	1.6	–
